The values that follow come from patent US11583588B2, “Modular self assembly disassembly (SADA) technologies” (MEMORIAL SLOAN KETTERING CANCER CENTER, priority 2017, dated 2023).

Like-named read-outs stand apart in the source and are kept apart here.

The nature of data set [1]: Clearance of unbound injected Bn-DOTA in a tumor free mouse. Format: in vivo. The note with it: within four hours. The method, then:
In a tumor free mouse, over 99% of unbound injected Bn-DOTA typically clears from the murine serum within four hours, with the vast majority of it being excreted in the urine within the first 30 minutes. In contrast, previous studies have shown that between 3 to 5% of directly labeled IgG will remain in the blood 48 hours after injection. (Azzopardi, N. et al. (2011) Clin Cancer Res 17, 6329-6337).

The nature of data set [2]: Blood and tumor activity after P53-BiDE(noHIS) and 177Lu-Bn-DOTA administration (FIG. 6A, 6D, 6E). The following applies: 177Lu-Bn-DOTA only. Format: in vivo, mice. The method, then: FIG. 6A to FIG. 6E depict pharmacokinetics of exemplary SADA-BiDE constructs in vivo. FIG. 6A depicts activity over time after P53-BiDE(noHIS) and Bn-DOTA administration. Each line represents one group, with three mice per group. Triangles denote a group that received P53-BiDE(noHIS) followed by clearing agent (CA) 72 hours later. Squares denote a group that received P53-BiDE(noHIS) without any clearing agent before ^177Lu-Bn-DOTA administration. Circles denote a group that only received ^177Lu-Bn-DOTA but not any SADA-BiDE. Dashed lines correspond to the measured blood activity, while solid lines correspond to the activity measured in the tumor. […] FIG. 6B depicts blood activity of radiolabeled 131I-SADA-BiDE in tumor-free mice. Activity measurements were normalized to the initial measurement for each group. Each line represents one group, with 4-5 mice per group. (+) symbols denote P53-BiDE, (X) symbols denote P63-BiDE and circles denote P73-BiDE. […]
Importantly, even though, as described in the previous examples, P53-BIDE(NOHIS), P53-BiDE, P63-BiDE and P73-BiDE is rapidly cleared from the serum, total tumor uptake of was not affected. With both 24 hours and 72 hours between P53-BIDE(NOHIS) and ^177Lu-Bn-DOTA injections, significant activity (˜15% ID/g) was measured at the tumor site (FIG. 6D) […]

The conditions of data set [3]: 37° C., cited from earlier work.

`O=C(O)CN1CCN(CC(=O)O)CCN(CC(=O)O)C(Cc2ccccc2)CN(CC(=O)O)CC1` (stereo not shown) [Bn-DOTA, Benzyl-1,4,7,10-tetraazacyclododecane-1,4,7,10-tetraacetic acid, reference compound]: in data set [1], the “unbound injected Bn-DOTA cleared from murine serum” value is “over 99%”. The “tumor activity, Bn-DOTA alone without SADA-BiDE” value in data set [2] is given as “no tumor activity was detected”.

On to “Tetramerization domain of p53 (residues 321-359): Human p53 tetramerization domain (321-359), SADA domain; SEQ ID NO: 1”, for which the Kd in data set [3] (read-out: dissociation constant (KD), tetramers dissociating into dimers) is 150 nM; in data set [3] (read-out: dissociation constant of dimers into monomers) it was 1 nM.
